Measured values reported in US20260168007A1, “Methods and Devices for Detecting Mechanical Forces Using Cas Nuclease and Guide RNA Complexes” (Emory University, priority 2022, published 2026).

Legend:
NIH/3T3 cells = test: MCATS assay of integrin-mediated forces in NIH/3T3 cells, plate reader readout; assay type: cell-based; details: NIH/3T3 cells pretreated 30 min, 0-50 μM
Method: The values were normalized to the signal obtained from the 25,000 cells/well samples without drug treatment. All measurements were background subtracted using negative control wells lacking cells.
Considering that receptor mediated tension plays an important role in cell function, quantifying molecular forces of cell in a rapid fashion facilitates applications such as screening dose-response curves for drugs that modulate cell mechanics. Experiments were performed to determine whether MCATS can be used to produce a dose response curve for NIH-3T3 cell incubated with Rho kinase inhibitor, Y-27632, which targets the phosphorylation of myosin light chain and therefore dampens forces transmitted by focal adhesions. NIH/3T3 cells were pretreated with a range of Y-27632 concentrations (0-50 μM) for 30 min. MCATS was ran with the drug treated cell.
The wells were washed with 1×PBS.

human platelets = test: MCATS assay of human platelet forces on Ttol=12 pN surface
Method: Each drug was incubated for 30 min prior to seeding. Mechano-IC50 was calculated by fitting a plot to a standard dose-response function: Signal=Bottom+(Top-Bottom)/(1+([drug]/IC50).
Platelet-rich plasma (PRP) is prepared by centrifugation and separation from whole blood. Then platelets rich plasma was separated and centrifuged a second time with apyrase and resuspended in Tyrode's solution, which is isotonic with interstitial fluid, contains magnesium, and uses bicarbonate and phosphate as a buffer. Apyrase is important in the platelets purification process to prevent hemolysis caused platelets aggregation. MCATS was tested as a function of the number of platelets seeded on the Ttol=12pN surface (FIG. 3A). […]
MCATS assay was performed on the prepared biotin surface as described in the surface preparation section. […] Surfaces with exposed activator were imaged directly with fluorescence microscopy for high resolution characterization and quantification. […] After 1 h of incubation, fluorescence intensities on 96 well plates were measured with a plate reader (Ex/Em=540/590 nm for reporter channel).
For platelet MCATS measurements, human platelets were purified and incubated at room temperature for at least 30 min before beginning experiments. […] The same MCATS protocols were followed to achieve amplification and quantification for platelets.

In the case of `C[C@@H](N)[C@H]1CC[C@H](C(=O)Nc2ccncc2)CC1` [Y-27632], the “MCATS signal as a function of drug concentration” value (NIH/3T3 cells) is reported as “dose-dependent reduction”.

In the case of `Nc1ncnc2c1ncn2[C@@H]1O[C@H](COP(=O)(O)OP(=O)(O)O)[C@@H](O)[C@H]1O` [ADP], the “MCATS tension signal, dose-response to agonist” value (human platelets) is reported as “Increasing tension signal”.
